Molecular target: T1, CXCR4 (Homo sapiens, UniProt P61073)
T1 construct: host or cells: CCRF-HSB2 human T cells
Test: Inhibition experiment against induction activity of SDF-1 on transitory increase of Ca ion
Format: cell-based
Details: test compound 10 μM, SDF-1β 30 nM added 3 minutes after compound, CCRF-HSB2 human T cells loaded with Fura-2AM; for inhibition at 10 µM: CCRF-HSB-2, read-out: Inhibition rate (%)
Excerpt: As described above, for screening a compound inhibiting the binding of HIV to CXCR4 which is a receptor on T cell, it is a more direct procedure to carry out the screening in an assay system using HIV virus. However, use of HIV virus on a large scale screening is not practical owing to its difficulty of handling. On the other hand, since HIV and SDF-1 are both bound to CXCR4, it is expectable that there are some common characteristics between the CXCR4 binding sites of both HIV and SDF-1 sides and the SDF-1 and HIV binding sites of CXCR4 side. Therefore, in order to find out a compound inhibiting the adsorption of HIV virus to a cell, i.e., having an activity mechanism different from the existing anti-AIDS medicaments (inhibitors of reverse transcription and inhibitors of proteases), it is possible to utilize an assay system using SDF-1 which is an original ligand for CXCR4, instead of HIV. More particularly, as an example of the screening system of a compound inhibiting the binding of SDF-1 to CXCR4, a system of measuring an effect on transitory increase of Ca ion induced by SDF-1 through CXCR4 is practicable since CXCR4 is a G protein-conjugated seven-times transmembrane-type receptor.
A human T cell expressing CXCR4, for example cells of CCRF-HSB2 (ATCC No. CCL-120.1) were suspended into RPMI-1640 medium, fetal bovine serum (FBS) (10%), Fura-2AM (5 μM) (Dojin Kagaku, cat# 343-05401), Probenecid (2.5 mM), and a HEPES buffer (20 mM, pH 7.4) so as to be 5×10^6 cell/ml, and the suspension was heated at 37° C. for 30 minutes under a light-shielded condition. Then, a 4 to 8 fold-diluted Hanks solution (1× Hanks), HEPES (20 mM, pH 7.4) and Probenecid (2.5 mM) were added thereto, and the whole was heated for another 30 minutes. After the cells were washed with a solution of 1× Hanks, HEPES (20 mM, pH 7.4) and Probenecid (2.5 mM), they were re-suspended into the solution so as to be 2×10^6 cell/ml. For the T cell on which Fura-2AM had been loaded, the transitory increase of Ca induced by the addition of recombinant SDF-1β dissolved in PBS(−) was detected by use of a suitable Ca detector. In the inhibition experiment, the inhibitory effect of a test compound (10 μM) on the transitory increase of Ca induced by the addition of recombinant SDF-1β were measured by adding SDF-1β at an amount so as to be final concentration of, for example, 30 nM at 3 minutes after the addition of the test compound. An inhibition rate (%) was calculated according to the following equation.
Inhibition rate=(Ec−Ea)/Ec×100
In the equation, each symbol means as follows: […]
Ec: measured value of the transitory increase of Ca induced by SDF-1β
Ea: measured value of the transitory increase of Ca induced by SDF-1β when a test compound was added.

T1 sequence (P61073 whole entry): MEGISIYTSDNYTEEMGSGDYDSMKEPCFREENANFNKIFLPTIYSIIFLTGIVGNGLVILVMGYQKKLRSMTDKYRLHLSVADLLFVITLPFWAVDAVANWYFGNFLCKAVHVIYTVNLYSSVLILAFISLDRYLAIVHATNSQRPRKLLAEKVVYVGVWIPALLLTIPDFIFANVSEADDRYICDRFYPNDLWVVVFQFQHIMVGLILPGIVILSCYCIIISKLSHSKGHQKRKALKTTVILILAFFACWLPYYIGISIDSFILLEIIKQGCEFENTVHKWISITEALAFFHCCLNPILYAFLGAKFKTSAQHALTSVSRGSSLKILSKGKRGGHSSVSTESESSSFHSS

SMILES | Inhibition rate (%) | inhibition at 10 µM [%]
CCCCCCCCCCC[C@@H](CC(=O)N[C@H]1C(O)O[C@H](CO)[C@@H](OS(=O)(=O)[O-])[C@@H]1OC(=O)CCCCCCCCc1ccccc1)OC(=O)CCCCCCCCc1ccccc1.[Na+] (stereo partly drawn) [Compound (1), 2-Deoxy-2-[3S-(9-phenylnonanoyloxy)tetradecanoyl]amino-3-O-(9-phenylnonanoyl)-4-O-sulfo-D-glucopyranose sodium salt] | 93 | –
O=C(CCCCCCCCc1ccc2ccccc2c1)N[C@H]1C(O)O[C@H](CO)[C@@H](OS(=O)(=O)O)[C@@H]1OC(=O)CCCCCCCCc1ccc2ccccc2c1 (stereo partly drawn) [Compound (6), 2-deoxy-2-[9-(2-naphthyl)nonanoyl]amino-3-O-[9-(2-naphthyl)nonanoyl]-40-sulfo-D-glucopyranose] | 97 | –
CCCCCCCCCCCC(CC(=O)N[C@H]1COC[C@@H](OS(=O)(=O)O)[C@@H]1OC(=O)CCCCCCCCc1ccccc1)OC(=O)CCCCCCCCc1ccccc1 (stereo partly drawn) [Compound (8), 2-deoxy-2-[3RS-(9-phenylnonanoyloxy)tetradecanoyl]amino-3-O-(9-phenylnonanoyl)-4-O-sulfo-1,5-anhydro-D-xylitol] | 94 | –
CCCCCCCCCCCCCC(=O)O[C@H]1[C@H](OS(=O)(=O)O)[C@@H](CO)OC(O)[C@@H]1NC(=O)c1ccc(OCCCCCCCCCC)c(OCCCCCCCCCC)c1 (stereo partly drawn) [Compound (9)] | 93 | –
CCCCCCCCCCCCCC(=O)O[C@@H]1[C@@H](NC(=O)c2ccc(OCCCCCCCCCC)c(OCCCCCCCCCC)c2)[C@@H](OC)O[C@H](CO)[C@H]1OS(=O)(=O)O [Compound (10), methyl 2-deoxy-2-(3,4-didecyloxybenzoyl) amino-3-O-tetradecanoyl-4-O-sulfo-α-D-glucopyranoside] | 91 | –
CCCCCCCCCCC[C@@H](CC(=O)N[C@H]1CO[C@H](C)[C@@H](OS(=O)(=O)O)[C@@H]1OC(=O)CCCCCCCCc1ccccc1)OC(=O)CCCCCCCCc1ccccc1 [Compound (12), 2,6-deoxy-2-[3S-(9-phenylnonanoyloxy)tetradecanoyl]amino-3-O-(9-phenylnonanoyl)-4-O-sulfo-1,5-anhydro-D-glucitol] | 94 | –
CCCCCCCCCCCC(CC(=O)NC1CCCC(OS(=O)(=O)O)C1OC(=O)CCCCCCCCc1ccccc1)OC(=O)CCCCCCCCc1ccccc1 (stereo not drawn) [Compound (13), 3(syn)-[3RS-(9-phenylnonanoyloxy)tetradecanoyl]amino-2RS (anti)-(9-phenylnonanoyloxy)cyclohexa-1RS-yl-O-sulfonic acid] | 86 | –
CCCCCCCCCCCCC[C@@H](CC(=O)N[C@H]1C(O)O[C@H](CO)[C@@H](OS(=O)(=O)[O-])[C@@H]1OC(=O)CCCCCCCCc1ccccc1)OC(=O)CCCCCCCCc1ccccc1.[Na+] (stereo partly drawn) [Compound (17), 2-Deoxy-2-[3S-[9-phenylnonanoyloxy]hexadecanoyl]amino-3-O-[9-phenylnonanoyl]4-O-sulfo-D-glucopyranose sodium salt] | 93 | –
CCCCCCCCCCCCCC(=O)O[C@@H](CCCCCCCCCCC)CC(=O)N[C@H]1C(O)O[C@H](C)[C@@H](OS(=O)(=O)O)[C@@H]1OC(=O)CCCCCCCCCCCCC (stereo partly drawn) [Example 4, 2,6-deoxy-2-[3S-(tetradecanoyloxy)tetradecanoyl]amino-3-O-tetradecanoyl-4-O-sulfo-D-glucopyranose] | 92 | –

Other lines, results leading:

Inhibition rate (%) | inhibition at 10 µM [%] | SMILES
96 | – | O=C(C[C@H](CCCCCCc1ccccc1)OC(=O)CCCCCCCCc1ccccc1)N[C@H]1C(O)O[C@H](CO)[C@@H](OS(=O)(=O)O)[C@@H]1OC(=O)CCCCCCCCc1ccccc1 (stereo partly drawn) [Compound (2), 2-deoxy-2-[3S-(9-phenylnonanoyloxy)-9-phenylnonanoyl]amino-3-O-(9-phenylnonanoyl)-4-O-sulfo-D-glucopyranose]
97 | – | CCCCCCCCCCC[C@@H](CC(=O)N[C@H]1C(O)O[C@H](CO)[C@@H](OS(=O)(=O)O)[C@@H]1OC(=O)CCCCCCCc1ccc(OC)cc1)OC(=O)CCCCCCCc1ccc(OC)cc1 (stereo partly drawn) [Compound (3)]
96 | – | CCCCCCCCCCC[C@@H](CC(=O)N[C@H]1C(O)O[C@H](CO)[C@@H](OS(=O)(=O)O)[C@@H]1OC(=O)CCCCCCCCc1ccc(Cl)cc1)OC(=O)CCCCCCCCc1ccc(Cl)cc1 (stereo partly drawn) [Compound (4)]
97 | – | CCCCCCCCCCC[C@@H](CC(=O)N[C@H]1C(O)O[C@H](CO)[C@@H](OS(=O)(=O)O)[C@@H]1OC(=O)CCCCc1ccc(CCCCC)cc1)OC(=O)CCCCc1ccc(CCCCC)cc1 (stereo partly drawn) [Compound (5), 2-deoxy-2-[3S-[5-(4-pentylphenyl)pentanoyloxy]tetradecanoyl]amino-3-O-[5-(4-pentylphenyl)pentanoyl]4-O-sulfo-D-glucopyranose]
95 | – | CCCCCCCCCCC[C@@H](CC(=O)N[C@H]1C(O)O[C@H](CO)[C@@H](OS(=O)(=O)O)[C@@H]1OC(=O)CCCCCCCOc1cc(Cl)cc(Cl)c1)OC(=O)CCCCCCCOc1cc(Cl)cc(Cl)c1 (stereo partly drawn) [Compound (7), 2-deoxy-2-[3S-[8-(3,5-dichlorophenoxy)octanoyloxy]tetradecanoyl]amino-3-O-[8-(3,5-dichlorophenoxy)octanoyl]-4-O-sulfo-D-glucopyranose]
96 | – | CCCCCCCCCCC[C@@H](CC(=O)N[C@H]1C(O)O[C@H](CO)[C@@H](OS(=O)(=O)[O-])[C@@H]1OC(=O)CCCCCCCCc1ccccc1)OC(=O)CCc1ccccc1.[Na+] (stereo partly drawn) [Compound (14), 2-Deoxy-2-[3S-[3-phenylpropanoyloxy]tetradecanoyl]amino-3-O-[9-phenylnonanoyl]4-O-sulfo-D-glucopyranose sodium salt]
93 | – | CCCCCCCCCCC[C@@H](CC(=O)N[C@H]1C(O)O[C@H](CO)[C@@H](OS(=O)(=O)[O-])[C@@H]1OC(=O)CCc1ccccc1)OC(=O)CCCCCCCCc1ccccc1.[Na+] (stereo partly drawn) [Compound (15), 2-Deoxy-2-[3S-[9-phenylnonanoyloxy]tetradecanoyl]amino-3-O-[3-phenylpropanoyl]-4-O-sulfo-D-glucopyranose sodium salt]
92 | – | CCCCCCCCC[C@@H](CC(=O)N[C@H]1C(O)O[C@H](CO)[C@@H](OS(=O)(=O)[O-])[C@@H]1OC(=O)CCCCCCCCc1ccccc1)OC(=O)CCCCCCCCc1ccccc1.[Na+] (stereo partly drawn) [Compound (16), 2-Deoxy-2-[3S-[9-phenylnonanoyloxy]dodecanoyl]amino-3-O-[9-phenylnonanoyl]4-O-sulfo-D-glucopyranose sodium salt]
91 | – | CCCCCCCCCCC[C@H](CC(=O)N[C@H]1C(O)O[C@H](CO)[C@@H](OS(=O)(=O)[O-])[C@@H]1OC(=O)CCCCCCCCc1ccccc1)OC(=O)CCCCCCCCc1ccccc1.[Na+] (stereo partly drawn) [Compound (18), 2-Deoxy-2-R[3-[9-phenylnonanoyloxy]tetradecanoyl]amino-3-O-[9-phenylnonanoyl]4-O-sulfo-D-glucopyranose sodium salt]
– | 79 | CCCCCCCCCCC[C@H](CC(=O)N[C@H]1C(O)O[C@H](CO)[C@@H](OS(=O)(=O)O)[C@@H]1OC(=O)CCCCC)OC(=O)CCCCC (stereo partly drawn) [Example 2 (3), 2-deoxy-2-[3R-(hexanoyloxy)tetradecanoyl]amino-3-O-hexanoyl-4-O-sulfo-D-glucopyranose]
– | 94 | CCCCCCCCCCC[C@H](CC(=O)N[C@H]1C(O)O[C@H](CO)[C@@H](OS(=O)(=O)O)[C@@H]1OC(=O)CCCCCCCCC)OC(=O)CCCCCCCCC (stereo partly drawn) [Example 2 (4), 2-deoxy-2-[3R-(decanoyloxy)tetradecanoyl]amino-3-O-decanoyl-4-O-sulfo-D-glucopyranose]
– | 99 | CCCCCCCCCCCC(=O)O[C@H](CCCCCCCCCCC)CC(=O)N[C@H]1C(O)O[C@H](CO)[C@@H](OS(=O)(=O)O)[C@@H]1OC(=O)CCCCCCCCCCC (stereo partly drawn) [Example 2 (5), 2-deoxy-2-[3R-(dodecanoyloxy)tetradecanoyl]amino-3-O-dodecanoyl-4-O-sulfo-D-glucopyranose]
